Laboratory results from publication PMC11784839, “Monoaminergic neurotransmitters are bimodal effectors of tau aggregation” (Science Advances, 2025).

Biological target: tau (Homo sapiens, UniProt P10636)
Test: MCE Phenols Library screening, tau biosensor cell seeding assay (AvZ)
Format: cell-based
Conditions: for AvZ (average z score of seeding, SDs from the mean level of seeding): 10 μM phenol in cell cultures, AD brain homogenate preincubated 16 hours, two biological replicates, positive = catalyzes seeding, negative = inhibits; for Z repl 1 / Z Repl 2: Z score; for Z repl 1 / raw data 1: replicate 1; for Z Repl 2 / raw data 2: replicate 2; for av Z: average Z score of the two replicates
[1] = average puncta of the two replicates

Sequence of tau (P10636 623-695 limits assumed): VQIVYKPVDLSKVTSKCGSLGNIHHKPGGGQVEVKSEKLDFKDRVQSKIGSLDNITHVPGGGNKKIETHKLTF

Structure (SMILES) | AvZ (average z score of seeding, SDs from the mean level of seeding) | Z repl 1 | Z Repl 2 | av puncta (average of raw data 1 and 2) | raw data 1 (puncta) | raw data 2 (puncta) | av puncta [1] | av Z (MCE Phenols Library screen) | raw data 1 (raw puncta) | raw data 2 (raw puncta) | av Z (tau biosensor seeding, MCE Phenols Library screen) | av Z (tau seeding)
CCCOC(=O)c1cc(O)c(O)c(O)c1 [Propyl gallate] | -0.849 | -0.716 | -0.982 | 10013.9 | 17751.7 | 2276.1 |  |  |  |  |  | 
CCCOC(=O)c1ccc(O)cc1 [Propylparaben] | 0.488 | 0.084 | 0.893 | 24829.8 | 27354.6 | 22304.9 |  |  |  |  |  | 
O=Cc1ccc(O)c(O)c1 [Protocatechualdehyde] | -0.588 | -0.894 | -0.283 |  | 15614.9 | 9745.34 | 12680.1 |  |  |  |  | 
O=C(O)c1ccc(O)c(O)c1 [Protocatechuic acid] | -0.565 | -0.928 | -0.202 |  | 15212.3 | 10612.8 | 12912.5 |  |  |  |  | 
Cc1cc(O)c2c(=O)c3c(O)cc(O)c4c5c(O)cc(O)c6c(=O)c7c(O)cc(C)cc7c(c65)c(c2c1)c34 [Protohypericin] |  | -0.657 | -0.804 |  | 18463.4 | 4183.21 | 11323.3 | -0.73 |  |  |  | 
OC[C@]1(O)COc2cc(O)ccc2-c2cc(O)c(O)cc2C1 [Protosappanin B] |  | -0.022 | -0.809 |  |  |  | 15106.6 | -0.415 | 26082.6 | 4130.62 |  | 
COc1cc(O)c2c(=O)c(-c3ccc(O)cc3)coc2c1 [Prunetin] |  | 3.008 | 2.297 | 49877.5 | 62461.3 | 37293.6 |  |  |  |  | 2.652 | 
O=C1C[C@@H](c2ccc(O)cc2)Oc2cc(O[C@@H]3O[C@H](CO)[C@@H](O)[C@H](O)[C@H]3O)cc(O)c21 [Prunin] |  | -0.134 | 0.469 | 21257.9 | 24743.3 | 17772.6 |  |  |  |  |  | 0.168
COc1cc(/C=C/c2ccc(O)cc2)cc(OC)c1 [Pterostilbene] |  | -0.975 | -0.298 |  | 14642.4 | 9586.42 | 12114.4 | -0.636 |  |  |  | 
O=c1c(-c2ccc(O)cc2)coc2c([C@@H]3O[C@H](CO[C@@H]4OC[C@@H](O)[C@H](O)[C@H]4O)[C@@H](O)[C@H](O)[C@H]3O)c(O)ccc12 [Puerarin 6''-O-Xyloside] |  | -0.042 | -0.868 |  |  |  | 14673.6 | -0.455 | 25849 | 3498.14 |  | 
O=C1c2ccccc2C(=O)c2c(O)c(O)cc(O)c21 [Purpurin] |  | 0.055 | -0.946 |  |  |  | 14831.1 | -0.446 | 27004.8 | 2657.32 |  | 
